The test system of data set [1] is cell types that do not express ITK and RLK. Description: BioMap cell screening panel, cell types that do not express ITK and RLK. It counts as cell-based. Particulars: data not shown. An excerpt:
(§1) FIG. 1 depicts the inhibition of intracellular expression of IL-17 in the presence of an ITK/RLK inhibitor (Tool Compound A) by a population of T-cells activated by anti-CD3/anti-CD-28. FIG. 2 depicts results from a BioMap® cell screening panel (performed by BioSeek, Inc., South San Francisco, Calif.) is a set of cell-based assays used to probe the cellular potency and selectivity of inhibitory compounds. A variety of cell culture and co-culture systems are stimulated with a range of molecules. Biomarker readouts are pathway activities in the culture systems. The biomarker readouts measured in each system are indicated along the x-axis. […] Three concentrations of Compound A were tested for the ability to modulate the various readouts. […] The TH2 system consists of primary human umbilical vein endothelial cells co-cultured with 14-day TH2 polarized CD4 T-cell blasts stimulated with TCR and IL-2.

For another data set, the target named is RLK (Homo sapiens (Human), UniProt P42681). Description: Inhibition of RLK enzymatic activity, Caliper assay. It counts as biochemical.
Chain of RLK (P42681 whole entry): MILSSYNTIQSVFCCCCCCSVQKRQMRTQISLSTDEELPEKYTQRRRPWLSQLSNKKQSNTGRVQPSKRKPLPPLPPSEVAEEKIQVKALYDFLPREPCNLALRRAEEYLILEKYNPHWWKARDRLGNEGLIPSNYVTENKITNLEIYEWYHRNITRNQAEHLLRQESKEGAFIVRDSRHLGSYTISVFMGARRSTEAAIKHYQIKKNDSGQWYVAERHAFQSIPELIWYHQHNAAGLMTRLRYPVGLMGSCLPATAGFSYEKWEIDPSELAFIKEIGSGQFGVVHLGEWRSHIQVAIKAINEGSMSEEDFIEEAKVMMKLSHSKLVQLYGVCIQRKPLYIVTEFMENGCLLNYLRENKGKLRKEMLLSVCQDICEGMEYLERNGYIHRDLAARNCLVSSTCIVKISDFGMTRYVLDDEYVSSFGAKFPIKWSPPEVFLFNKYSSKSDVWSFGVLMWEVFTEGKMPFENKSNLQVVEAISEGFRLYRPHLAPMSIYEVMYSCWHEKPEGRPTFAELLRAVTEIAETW
A further data set has as its system human Th17 cells. The experiment in a line: Intracellular IL-17 expression by purified human Th17 cells after anti-CD3/anti-CD28 activation. It counts as cell-based. The following applies: single dose of 500 nM, 1 h exposure, 12 h activation, FACS. The text has this:
A population of T cells enhanced in Th17 cells was produced using the EasySep™ human Th17 enrichment kit from StemCell Technologies. […]

Data set [2] concerns human Th2 cell-HUVEC co-culture. The experiment in a line: IL-17A secretion in primary Th2 cell-HUVEC co-cultures (BioMap TH2 system). It counts as cell-based. The following applies: stimulated by TCR activation and interleukin-2.
Text: as §1
(§2) Tool Compound A was tested in T cell co-cultures consisting of either a mixture of human primary peripheral blood mononuclear cells (PBMC) and B cells or human primary differentiated Th2 cells and human umbilical vein endothelial cells. The PBMC-B cell co-cultures were stimulated with TCR activators anti-CD3 and anti-CD28 and anti-IgM antibodies for 84 h to simulate B cell activation driven by T cell activation. Tool Compound A was tested at 10 μM, 1 μM, 100 nM and 10 nM. […]

Another data set has as its system murine Th17 cells. The experiment in a line: Differentiation of murine Th17 cells from CD4+ cells of TCR transgenic mice. It counts as cell-based, mouse. The following applies: for pIC50: Mus musculus, 72 h. As to the method: CD4+ cells from TCR transgenic mice (B10.A 5C.C7 TCR Tg (Rag-2^−/−)) were grown for three days in the presence of culture conditions that support the differentiation of the T cell population to Th17 cells (optimized concentrations of IL-6, TGF-β, IL-1β, IL-23, anti-mouse IL-2, anti-mouse IFN-γ, and anti-mouse IL-4 mAb). This was done in the presence of varying concentrations of Tool Compound A in the cell culture medium during the differentiation procedure. The cells were then activated with a combination of phorbol 12-myristate 13-acetate and ionomycin and the expression of the Th17 specific transcription factor RORγt and intracellular IL-17A was measured by flow cytometry.

The subject of data set [3] is human PBMC and B cell co-culture. Description: IL-17A secretion in PBMC-B cell co-cultures (BioMap BT system). The class given is cell-based.
Text: as §1, §2

The test system of a further data set is human PBMCs. The experiment in a line: cells. Particulars: PBMC, read-out: CD3/CD28-induced IL-2 IC50.
For the next data set, the system named is NFAT-bla Jurkat cells. The experiment in a line: cells. The following applies: Homo sapiens, read-out: TCR-induced NFAT IC50.
The mark [4] stands for this setting: ATP at Km (100 μM), 15 min pre-incubation, 3 h reaction.

Each structure is given as a SMILES string. pIC50: −log10 of the molar value. Structures can show the parent of a compound that is named as a salt. Where two headings read alike, the source gives them in different places.

Consider `C=CC(=O)N1CCC[C@@H]1Cn1c(NC(=O)c2ccc(C(F)F)s2)nc2cc(CN[C@@H](C)C(C)(C)C)ccc21` [PRN694], for which, in data set [1], the “Inhibitory activity in cell types that do not express ITK and RLK” value is listed as “essentially no inhibitory activity”.
`C=CC(=O)N1CCC[C@@H]1Cn1c(NC(=O)c2ccc(-c3cnco3)s2)nc2cc(CN[C@H](CO)C(C)(C)C)ccc21` [Example 10, N-(1-(((R)-1-acryloylpyrrolidin-2-yl)methyl)-5-((((S)-1-hydroxy-3,3-dimethylbutan-2-yl)-amino)methyl)-1H-benzo[d]imidazol-2-yl)-5-(oxazol-5-yl)thiophene-2-carboxamide] showed a pIC50 against RLK (setting [4]) of 9.70.
Regarding `C[C@H](NCc1ccc2c(c1)nc(NC(=O)c1ccc(C(F)F)s1)n2C[C@H]1CCCN1C(=O)C(C#N)=CC(C)(C)C)C(C)(C)C` [Tool Compound A, N-(1-(((R)-1-(2-cyano-4,4-dimethylpent-2-enoyl)pyrrolidin-2-yl)methyl)-5-((((S)-3,3-dimethylbutan-2-yl)amino)methyl)-1H-benzo[d]imidazol-2-yl)-5-(difluoromethyl)thiophene-2-carboxamide], the “TCR-induced intracellular expression of IL-17” value in the data set on human Th17 cells is “completely blocked”. In addition, the IL-17A secretion entry in data set [2] is reported as “inhibited IL-17A secretion in a dose dependent manner”. The pIC50 was greater than 7.60 in the data set with murine Th17 cells (three days under Th17 conditions, PMA/ionomycin, flow cytometry, read-out: Midpoint of dose response - Th17: Intracellular cytokine expression (IL-17)); roughly 7.60 in the data set on murine Th17 cells (three days under Th17 conditions, PMA/ionomycin, flow cytometry, read-out: Midpoint of dose response - Th17: Transcription factor expression (RORγt)); greater than 7.60 with murine Th17 cells (three days under Th17 differentiation conditions, read-out: Midpoint of dose response - Th17: Proliferation); 9.00 against RLK. In addition, in the data set on murine Th17 cells (cultures polarizing murine T cells into Th17), the “Concentration that blocks expression of Th17 differentiation markers (RORγt and IL-17A)” value is recorded as no more than 25 nM. The “IL-17A secretion into culture supernatant” value in data set [3] (10 μM, 1 μM, 100 nM and 10 nM, anti-CD3, anti-CD28 and anti-IgM for 84 h) is reported as “inhibited in a dose dependent manner”. Moreover, in data set [3] (BioMap panel, three concentrations), the “Release of soluble proinflammatory cytokines IL17A, IL17F and TNFα by activated T cells” value is given as “inhibits release”.
As for `C=CC(=O)N1CCC[C@@H]1Cn1c(NC(=O)c2ccc(-c3cnco3)s2)nc2cc(CN[C@H](C)CO)ccc21` [Example 13, N-(1-(((R)-1-acryloylpyrrolidin-2-yl)methyl)-5-((((R)-1-hydroxypropan-2-yl)amino)methyl)-1H-benzo[d]imidazol-2-yl)-5-(oxazol-5-yl)thiophene-2-carboxamide], the pIC50 at RLK (setting [4]) is 9.52.
Still for that read-out and setting: for `C[C@H](NCc1ccc2c(c1)nc(NC(=O)c1ccc(-c3cnco3)s1)n2C[C@H]1CCCN1C(=O)C(C#N)=CC(C)(C)C)C(C)(C)C` [Example 15, N-(1-(((R)-1-(2-cyano-4,4-dimethylpent-2-enoyl)pyrrolidin-2-yl)methyl)-5-((((S)-3,3-dimethyl-butan-2-yl)amino)methyl)-1H-benzo[d]imidazol-2-yl)-5-(oxazol-5-yl)thiophene-2-carboxamide] the value was 8.92.
Turning to `CC(C)(C)C=C(C#N)C(=O)N1CCC[C@@H]1Cn1c(NC(=O)c2ccc(-c3cnco3)s2)nc2cc(CNCC3CC3)ccc21` [Example 2, (R)-N-(1-((1-(2-cyano-4,4-dimethylpent-2-enoyl)pyrrolidin-2-yl)methyl)-5-(((cyclopropyl-methyl)-amino)methyl)-1H-benzo[d]imidazol-2-yl)-5-(oxazol-5-yl)thiophene-2-carboxamide formate], the pIC50 was 7.09 with human PBMCs and 6.27 with NFAT-bla Jurkat cells.
In the case of `CC(C)(C)C=C(C#N)C(=O)N1CCC[C@@H]1Cn1c(NC(=O)c2ccc(-c3cnco3)s2)nc2cc(CO)ccc21` [Example 1, (R)-N-(1-((1-(2-cyano-4,4-dimethylpent-2-enoyl)pyrrolidin-2-yl)methyl)-5-(hydroxymethyl)-1H-benzo[d]imidazol-2-yl)-5-(oxazol-5-yl)thiophene-2-carboxamide], the pIC50 was 7.15 in the data set with human PBMCs, 7.30 with NFAT-bla Jurkat cells and 8.92 on RLK (setting [4]).
On to `C=CC(=O)N1CCC[C@@H]1Cn1c(NC(=O)c2ccc(-c3cnco3)s2)nc2cc(CN[C@@H](C)CO)ccc21` [Example 12, N-(1-(((R)-1-acryloylpyrrolidin-2-yl)methyl)-5-((((S)-1-hydroxypropan-2-yl)amino)methyl)-1H-benzo[d]imidazol-2-yl)-5-(oxazol-5-yl)thiophene-2-carboxamide], for which the pIC50 was 8.40 in the data set on human PBMCs, 8.30 with NFAT-bla Jurkat cells and 9.52 against RLK (setting [4]).
The matching figures for `C=CC(=O)N1CCC[C@@H]1Cn1c(NC(=O)c2ccc(-c3cnco3)s2)nc2cc(CNCC3CC3)ccc21` [Example 9, (R)-N-(1-((1-acryloylpyrrolidin-2-yl)methyl)-5-(((cyclopropylmethyl)amino)methyl)-1H-benzo[d]imidazol-2-yl)-5-(oxazol-5-yl)thiophene-2-carboxamide]: 8.40, 8.40 and 9.52.
Regarding `COCC(C)NCc1ccc2c(c1)nc(NC(=O)c1ccc(-c3cnco3)s1)n2C[C@H]1CCCN1C(=O)C(C#N)=CC(C)(C)C` (stereo partly drawn) [Example 7, N-1-(((R)-1-(2-cyano-4,4-dimethylpent-2-enoyl)pyrrolidin-2-yl)methyl)-5-((((R)-1-methoxypropan-2-yl)amino)methyl)-1H-benzo[d]imidazol-2-yl)-5-(oxazol-5-yl)-thiophene-2-carboxamide formate], the figures for the pIC50 in the data set on human PBMCs, with NFAT-bla Jurkat cells and on RLK (setting [4]) were 6.96, 7.00 and 8.68, respectively.
As to `C=CC(=O)N1CCC[C@@H]1Cn1c(NC(=O)c2ccc(-c3cnco3)s2)nc2cc(CN[C@@H](CO)C(C)(C)C)ccc21` [Example 11, N-(1-(((R)-1-acryloylpyrrolidin-2-yl)methyl)-5-((((R)-1-hydroxy-3,3-dimethylbutan-2-yl)-amino)-methyl)-1H-benzo[d]imidazol-2-yl)-5-(oxazol-5-yl)thiophene-2-carboxamide], the pIC50 against RLK (setting [4]) was 9.30.

These data come from US9932329B2, “Benzimidazole derivatives as RLK and ITK inhibitors” (Principia Biopharma, Inc., priority 2014, dated 2018).
